Biological target: T1, ΔF508-CFTR (Homo sapiens, UniProt P13569, DEL508-508)
T1 construct: Primary lung epithelial cells homozygous for the Cystic Fibrosis-causing ΔF508 mutation were differentiated for a minimum of 4 weeks; endogenous in cells; host or cells: primary lung epithelial cells (hBE) homozygous for ΔF508, differentiated at an air-liquid interface
Assay: hBE equivalent current (Ieq) assay: AUC of equivalent chloride current after forskolin/VX-770 in primary lung epithelial cells homozygous for ΔF508
Type: cell-based
Settings: relative to CFTR amplifier (Compound A)+VX-809 (3 uM), compound at 10 uM and Compound A at 3 uM, 24 h treatment
Method: ii. hBE Equivalent Current (Ieq) Assay
Primary lung epithelial cells homozygous for the Cystic Fibrosis-causing ΔF508 mutation were differentiated for a minimum of 4 weeks in an air-liquid interface on Costar 24 well HTS filter plates prior to the equivalent current (Ieq) measurements. Cells were apically mucus-washed for 30 minutes 24 h prior to treatment with compounds. The basolateral media was removed and replaced with media containing the compound of interest diluted to its final concentration from DMSO stocks. Treated cells were incubated at 37° C. and 5% CO2 for 24 hours. At the end of the treatment period, the media was changed to the Ieq experimental solution for 2 hours before the experiment and plates are maintained in a CO2-free incubator during this period. The plates containing the cells were then placed in pre-warmed heating blocks at 36° C.±0.5 for 15 minutes before measurements are taken. The transepithelial voltage (VT) and conductance (GT) were measured using a custom 24 channel current clamp (TECC-24) with 24 well electrode manifold. The Ieq assay measurements were made following additions with standardized time periods: • 1. The baseline VT and GT values were measured for approximately 20 minutes. • 2. Benzamil was added to block ENaC for 15 minutes. • 3. Forskolin plus VX-770 were added to maximally activate ΔF508-CFTR for 27 minutes. • 4. Bumetanide was added to inhibit the NaK2Cl cotransporter and shut-off secretion of chloride.
The activity data captured was the area under the curve (AUC) for the traces of the equivalent chloride current. The AUC was collected from the time of the forskolin/VX-770 addition until the inhibition by bumetanide addition. Correction in response to compound treatment was scored as the increase in the AUC for compound-treated samples over that of vehicle-treated samples.
(+ indicates activity<50% of an CFTR amplifier (Compound A)+VX-809 (3 uM) with compound at 10 uM and Compound A at 3 uM; ++ indicates activity>50% of CFTR amplifier+VX-809 (3 uM) with compound at 10 uM and Compound A at 3 uM.

T1 sequence (P13569 with tags, fused parts or gaps DEL508-508): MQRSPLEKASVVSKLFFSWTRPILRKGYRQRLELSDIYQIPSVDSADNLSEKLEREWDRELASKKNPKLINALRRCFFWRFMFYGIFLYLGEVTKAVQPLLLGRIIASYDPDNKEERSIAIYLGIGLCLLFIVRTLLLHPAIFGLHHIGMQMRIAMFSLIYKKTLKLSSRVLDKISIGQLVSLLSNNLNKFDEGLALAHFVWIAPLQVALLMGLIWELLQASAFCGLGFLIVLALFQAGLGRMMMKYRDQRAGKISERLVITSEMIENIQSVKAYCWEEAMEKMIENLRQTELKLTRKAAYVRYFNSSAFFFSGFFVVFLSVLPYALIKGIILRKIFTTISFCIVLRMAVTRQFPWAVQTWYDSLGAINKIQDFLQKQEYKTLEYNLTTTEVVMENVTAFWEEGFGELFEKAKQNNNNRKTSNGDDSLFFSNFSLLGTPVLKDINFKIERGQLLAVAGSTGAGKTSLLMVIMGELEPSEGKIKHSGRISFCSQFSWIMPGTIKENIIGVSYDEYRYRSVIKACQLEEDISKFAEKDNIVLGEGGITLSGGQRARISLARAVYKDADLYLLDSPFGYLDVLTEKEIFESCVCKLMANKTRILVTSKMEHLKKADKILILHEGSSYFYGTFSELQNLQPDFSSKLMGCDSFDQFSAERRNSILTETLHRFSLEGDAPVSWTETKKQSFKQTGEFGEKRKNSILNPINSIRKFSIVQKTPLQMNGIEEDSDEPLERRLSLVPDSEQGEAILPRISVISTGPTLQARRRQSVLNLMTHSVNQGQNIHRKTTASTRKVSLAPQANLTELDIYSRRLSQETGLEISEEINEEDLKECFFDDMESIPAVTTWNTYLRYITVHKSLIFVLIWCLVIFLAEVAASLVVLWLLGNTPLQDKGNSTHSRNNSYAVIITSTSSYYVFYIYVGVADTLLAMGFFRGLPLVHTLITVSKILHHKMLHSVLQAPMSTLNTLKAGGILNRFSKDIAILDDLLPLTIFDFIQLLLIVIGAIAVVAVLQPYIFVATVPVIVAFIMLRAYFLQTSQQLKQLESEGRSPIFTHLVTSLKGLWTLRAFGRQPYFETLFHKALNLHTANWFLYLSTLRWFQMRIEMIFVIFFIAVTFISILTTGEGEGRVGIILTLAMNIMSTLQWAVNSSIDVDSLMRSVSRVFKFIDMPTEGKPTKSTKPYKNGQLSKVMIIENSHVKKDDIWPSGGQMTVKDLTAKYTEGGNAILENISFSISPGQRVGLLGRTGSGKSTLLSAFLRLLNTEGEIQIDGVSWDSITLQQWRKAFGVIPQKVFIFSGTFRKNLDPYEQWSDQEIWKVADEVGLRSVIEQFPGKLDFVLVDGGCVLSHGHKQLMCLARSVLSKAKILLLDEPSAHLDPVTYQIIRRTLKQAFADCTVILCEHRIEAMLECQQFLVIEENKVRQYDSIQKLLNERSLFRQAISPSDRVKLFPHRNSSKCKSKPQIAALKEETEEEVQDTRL

| Compound | Activity |
| --- | --- |
| CCc1ccc(OC(CC)c2ccccc2)c2c(C(=O)O)cc(-c3csc4ccccc34)nc12 (stereo in doubt) [Compound 185, 2-(1-Benzothiophen-3-yl)-8-ethyl-5-[(1S)-1-phenylpropoxy]quinoline-4-carboxylic acid] | ++ (activity>50% of CFTR amplifier+VX-809 (3 uM) with compound at 10 uM and Compound A at 3 uM) |
| Cc1cc(Cl)cc2c(C(=O)O)cc(-c3cc4ccccc4s3)nc12 [Compound 1] | + (activity<50% of an CFTR amplifier (Compound A)+VX-809 (3 uM) with compound at 10 uM and Compound A at 3 uM) |
| Cc1cc(C)c2nc(-c3nc4ccccc4s3)cc(C(=O)O)c2c1 [Compound 2, 2-(1,3-Benzothiazol-2-yl)-6,8-dimethylquinoline-4-carboxylic Acid] | + (activity<50% of an CFTR amplifier (Compound A)+VX-809 (3 uM) with compound at 10 uM and Compound A at 3 uM) |
| Cc1cc(C)c2nc(-c3nc4ccccc4o3)cc(C(=O)O)c2c1 [Compound 3, 2-(1,3-Benzoxazol-2-yl)-6,8-dimethylquinoline-4-carboxylic acid] | + (activity<50% of an CFTR amplifier (Compound A)+VX-809 (3 uM) with compound at 10 uM and Compound A at 3 uM) |
| Cc1cc(C)c2nc(-c3cc4ccccc4s3)nc(C(=O)O)c2c1 [Compound 4, 2-(1-Benzothiophen-2-yl)-6,8-dimethylquinazoline-4-carboxylic Acid] | + (activity<50% of an CFTR amplifier (Compound A)+VX-809 (3 uM) with compound at 10 uM and Compound A at 3 uM) |
| Cc1cc(C)c2nc(-c3c(C)oc4ccccc34)cc(C(=O)O)c2c1 [Compound 5, 6,8-Dimethyl-2-(2-methyl-1-benzofuran-3-yl)quinoline-4-carboxylic acid] | + (activity<50% of an CFTR amplifier (Compound A)+VX-809 (3 uM) with compound at 10 uM and Compound A at 3 uM) |
| Cc1cc(C)c2nc(-c3cc4ccccc4o3)cc(C(=O)O)c2c1 [Compound 6, 2-(1-Benzofuran-2-yl)-6,8-dimethylquinoline-4-carboxylic acid] | + (activity<50% of an CFTR amplifier (Compound A)+VX-809 (3 uM) with compound at 10 uM and Compound A at 3 uM) |
| Cc1cc(C)c2nc(-c3cc4ccccc4o3)c(C)c(C(=O)O)c2c1 [Compound 7, 2-(1-Benzofuran-2-yl)-3,6,8-trimethylquinoline-4-carboxylic acid] | + (activity<50% of an CFTR amplifier (Compound A)+VX-809 (3 uM) with compound at 10 uM and Compound A at 3 uM) |
| Cc1cc(C)c2nc(-c3csc4ccccc34)cc(C(=O)O)c2c1 [Compound 8, 2-(1-Benzothiophen-3-yl)-6,8-dimethylquinoline-4-carboxylic acid] | + (activity<50% of an CFTR amplifier (Compound A)+VX-809 (3 uM) with compound at 10 uM and Compound A at 3 uM) |
| Cc1cc(C)c2nc(-c3oc4ccccc4c3C)cc(C(=O)O)c2c1 [Compound 9, 6,8-dimethyl-2-(3-methyl-1-benzofuran-2-yl)quinoline-4-carboxylic acid] | ++ (activity>50% of CFTR amplifier+VX-809 (3 uM) with compound at 10 uM and Compound A at 3 uM) |
| Cc1ccc(C)c2c(C(=O)O)cc(-c3cc4ccccc4o3)nc12 [Compound 10, 2-(1-Benzofuran-2-yl)-5,8-dimethylquinoline-4-carboxylic acid] | + (activity<50% of an CFTR amplifier (Compound A)+VX-809 (3 uM) with compound at 10 uM and Compound A at 3 uM) |
| COc1cc(C)c2nc(-c3cc4ccccc4o3)cc(C(=O)O)c2c1 [Compound 11, 2-(1-Benzofuran-2-yl)-6-methoxy-8-methylquinoline-4-carboxylic acid] | + (activity<50% of an CFTR amplifier (Compound A)+VX-809 (3 uM) with compound at 10 uM and Compound A at 3 uM) |
| Cc1cc(Cl)cc2cc(C(=O)O)c(-c3cc4ccccc4o3)nc12 [Compound 12, 2-(1-Benzofuran-2-yl)-6-chloro-8-methylquinoline-3-carboxylic Acid] | + (activity<50% of an CFTR amplifier (Compound A)+VX-809 (3 uM) with compound at 10 uM and Compound A at 3 uM) |
| Cc1ccc(C)c2c(C(=O)O)cc(-c3cc4ccccc4s3)nc12 [Compound 13, 2-(1-Benzothiophen-2-yl)-5,8-dimethylquinoline-4-carboxylic acid] | + (activity<50% of an CFTR amplifier (Compound A)+VX-809 (3 uM) with compound at 10 uM and Compound A at 3 uM) |
| COc1ccc(C)c2nc(-c3cc4ccccc4o3)cc(C(=O)O)c12 [Compound 14, 2-(1-Benzofuran-2-yl)-5-methoxy-8-methylquinoline-4-carboxylic acid] | + (activity<50% of an CFTR amplifier (Compound A)+VX-809 (3 uM) with compound at 10 uM and Compound A at 3 uM) |
| Cc1ccc(OCc2ccccc2)c2c(C(=O)O)cc(-c3cc4ccccc4o3)nc12 [Compound 15, 2-(1-Benzofuran-2-yl)-5-(benzyloxy)-8-methylquinoline-4-carboxylic acid] | ++ (activity>50% of CFTR amplifier+VX-809 (3 uM) with compound at 10 uM and Compound A at 3 uM) |
| Cc1cc(Cl)cc2c(C(=O)O)cc(-c3cc4ccccc4o3)nc12 [Compound 16, 2-(1-Benzofuran-2-yl)-6-chloro-8-methylquinoline-4-carboxylic acid] | + (activity<50% of an CFTR amplifier (Compound A)+VX-809 (3 uM) with compound at 10 uM and Compound A at 3 uM) |
| Cc1c(-c2cc(C(=O)O)c3cc(Cl)cc(C)c3n2)oc2ccccc12 [Compound 17, 6-Chloro-8-methyl-2-(3-methylbenzofuran-2-yl)quinoline-4-carboxylic acid] | ++ (activity>50% of CFTR amplifier+VX-809 (3 uM) with compound at 10 uM and Compound A at 3 uM) |
| Cc1cc(C)c2nc(-c3sc4ccccc4c3C)cc(C(=O)O)c2c1 [Compound 18, 6,8-Dimethyl-2-(3-methylbenzo[b]thiophen-2-yl)quinoline-4-carboxylic acid] | + (activity<50% of an CFTR amplifier (Compound A)+VX-809 (3 uM) with compound at 10 uM and Compound A at 3 uM) |
| Cc1c(-c2cc(C(=O)O)c3cc(C(F)(F)F)cc(C)c3n2)oc2ccccc12 [Compound 19, 8-Methyl-2-(3-methyl-1-benzofuran-2-yl)-6-(trifluoromethyl)quinoline-4-carboxylic acid] | ++ (activity>50% of CFTR amplifier+VX-809 (3 uM) with compound at 10 uM and Compound A at 3 uM) |
| Cc1c(-c2cc(C(=O)O)c3cc(F)cc(C)c3n2)oc2ccccc12 [Compound 20, 6-Fluoro-8-methyl-2-(3-methylbenzofuran-2-yl)quinoline-4-carboxylic acid] | ++ (activity>50% of CFTR amplifier+VX-809 (3 uM) with compound at 10 uM and Compound A at 3 uM) |
| Cc1c(-c2cc(C(=O)O)c3cc(Br)cc(C)c3n2)oc2ccccc12 [Compound 21, 6-bromo-8-methyl-2-(3-methyl-1-benzofuran-2-yl)quinoline-4-carboxylic acid] | ++ (activity>50% of CFTR amplifier+VX-809 (3 uM) with compound at 10 uM and Compound A at 3 uM) |
| Cc1c(-c2cc(C(=O)O)c3cc(C#N)cc(C)c3n2)oc2ccccc12 [Compound 22, 6-Cyano-8-methyl-2-(3-methyl-1-benzofuran-2-yl)quinoline-4-carboxylic Acid] | + (activity<50% of an CFTR amplifier (Compound A)+VX-809 (3 uM) with compound at 10 uM and Compound A at 3 uM) |
| COc1cc(C)c2nc(-c3oc4ccccc4c3C)cc(C(=O)O)c2c1 [Compound 23, 6-Methoxy-8-methyl-2-(3-methyl-1-benzofuran-2-yl)quinoline-4-carboxylic acid] | ++ (activity>50% of CFTR amplifier+VX-809 (3 uM) with compound at 10 uM and Compound A at 3 uM) |

From US11136313B2, “Compounds, compositions, and methods for modulating CFTR” (Proteostasis Therapeutics, Inc., priority 2015, dated 2021)
